Data from patent US9359487B2, “Plasticizers based on mixed esters of succinate” (Proviron Holding N.V., priority 2012, dated 2016).

What was measured:
Format in all cases: physicochemical
[1] = Volatility comparison of succinate and adipate ester (tests by the inventors); settings: versus comparable adipate ester DEHA
[2] = Extraction of plasticiser in water from plastisole samples; settings: plastisol, 50 phr plasticizer; for Extractions by H2O (Weight Difference %) 1 d: after 1 day; for Extractions by H2O (Weight Difference %) 7 d: after 7 days; for Extractions by H2O (Weight Difference %) dry: after drying the sample
Experimental: Various plastisoles were prepared on the basis of various plasticisers set forth in Table 1, according to the following formulae:
100 phr PVC (Vestolit B7021 ultra), 50 phr Plasticiser (Table 1), 3 phr ESBO (Drapex 39) (acting as anti-oxydans), 2 phr Ca/Zn stabiliser (Mark CZ 149).
Apart from the above, the viscosity property of the plastisole solution was determined after 24 h (viscosity vs. Shear) and the thickening was determined. Apart from this the extraction of the plasticiser in water (expressed as % weight gain/weight loss) after 1 day, 7 days were determined, as well as after drying the sample.

[3] = Weight loss test (volatility) of transparent plastisole PVC film at 100° C.; settings: for Volatile: Weight difference @ 100° C. After 4 days (%) / Volatile: Weight difference @ 100° C. After 7 days (%): transparent PVC film, 50 phr plasticiser; for delta vs. ref. (weight difference after 4 days) / delta vs. ref. (weight difference after 7 days): versus DINP
Experimental: Their plasticising behaviour is compared in a plastisole based transparent PVC film.
(flooring type, top layer): Solvin 382NG 100 phr (obtainable from Solvay S.A., Belgium), plasticiser 50 phr, Ca/Zn stabiliser (Baerostab NT 306) 2.5 phr (obtainable from the company Baerlocher).
The transparent film so formed is subjected to amongst others a weight loss test (volatility) at 100° C. for respectively 4 and 7 days. The plasticiser efficiency is determined by means of a hardness measurement. A measure for the compatibility of the plasticiser is the transparency.

[4] = Volatility of pure plasticiser by thermal-gravimetrical analysis; settings: 200° C./10 min, pure compound

| volatility compared to di-2-ethylhexyl-adipate (DEHA) [1] | Volatile: Weight difference @ 100° C. After 7 days (%) [3] [%] | delta vs. ref. (weight difference after 4 days) [3] | delta vs. ref. (weight difference after 7 days) [3] | SMILES | Extractions by H2O (Weight Difference %) 1 d [2] [%] | Extractions by H2O (Weight Difference %) 7 d [2] [%] | Extractions by H2O (Weight Difference %) dry [2] [%] | Volatile: Weight difference @ 100° C. After 4 days (%) [3] [%] | Volatily plasticizer (weightloss [m %]) [4] [m %] |
| --- | --- | --- | --- | --- | --- | --- | --- | --- | --- |
| approximately twice as volatile | – | – | – | CCCCC(CC)COC(=O)CCC(=O)OCC(CC)CCCC (centres unmarked) [DEHSu, di-2-ethylhexyl-succinate] | – | – | – | – | – |
| – | −17.60 | ×5.0 | ×4.4 | CCCCCC(CCC)COC(=O)CCC(=O)OCC(CCC)CCCCC (centres unmarked) [DPHS, di-(2-propylheptyl)succinate] | – | – | – | −11.50 | – |

Further lines, the compound ahead of its results:

| SMILES | volatility compared to di-2-ethylhexyl-adipate (DEHA) [1] | Volatile: Weight difference @ 100° C. After 7 days (%) [3] [%] | delta vs. ref. (weight difference after 4 days) [3] | delta vs. ref. (weight difference after 7 days) [3] | Extractions by H2O (Weight Difference %) 1 d [2] [%] | Extractions by H2O (Weight Difference %) 7 d [2] [%] | Extractions by H2O (Weight Difference %) dry [2] [%] | Volatile: Weight difference @ 100° C. After 4 days (%) [3] [%] | Volatily plasticizer (weightloss [m %]) [4] [m %] |
| --- | --- | --- | --- | --- | --- | --- | --- | --- | --- |
| CC(C)CCCCCCOC(=O)c1ccccc1C(=O)OCCCCCCC(C)C [DINP, Di-isononylphthalate] | – | −4.00 | – | – | 0.8 | 1.8 | 0.7 | −2.30 | −4.3 |
| CC(C)CCCCCCOC(=O)CCC(=O)OCCCCCCC(C)C [DINS, diisononylsuccinate] | – | −24.50 | ×7.6 | ×6.1 | – | – | – | – | – |
| CCCCC(CC)COC(=O)CCCCC(=O)OCC(CC)CCCC (centres unmarked) [DOA, Di-octyladepate] | – | – | – | – | 1 | 2.1 | 0.7 | – | −18.4 |
| CCCCC(CC)COC(=O)c1ccc(C(=O)OCC(CC)CCCC)cc1 (centres unmarked) [DOTP, Di-octyltherephthalate] | – | – | – | – | 0.8 | 1.7 | 0.7 | – | −4.8 |
| CC(C)CCCCCCOC(=O)c1ccccc1 [INB, Isononyl Benzoate] | – | – | – | – | 0.9 | 1.9 | 0.5 | – | −61.7 |
